Key:
[1] = tested on: PMA-stimulated human neutrophils; test: H2O2 generation by PMA-stimulated neutrophils, oxidation of Amplex Red; type: cell-based; conditions: PMA 160 nM, mean ± SEM
Procedure: Amplex Red is a highly sensitive and chemically stable fluorescent probe for the extracellular detection of H2O2 [82]. The methodology used previously for monitoring the modulation of the oxidative burst was adapted. In a 96-well plate, neutrophils (2 × 10^6 cells/mL) were incubated in the dark at 37 °C for 5 min with Amplex Red (25 μM), horseradish peroxidase (0.25 U/mL), and the compounds under study (10–100 μM) or DMSO (4%). Quercetin (0.3–5.0 μM) and DPI (0.01–10 μM) were used as controls. After incubation, PMA (160 nM) was added, and the fluorescence (excitation at 530 nm and emission at 590 nm) was measured in a microplate reader (Synergy HT, BioTek Instruments, Inc., Winooski, VT, USA). Obtained values correspond to the slope measured between 5 and 10 min. Effects are expressed as the percentage inhibition of Amplex Red oxidation. The results obtained represent at least three independent experiments. […] 3.4.3 Oxidation of Amplex Red
Amplex Red is a highly sensitive and chemically stable ﬂuorescent probe for the extracellular detection of H2O2 [16]. The methodology used previously for monitoring the modulation of the oxidative burst was adapted.
In a 96-well plate, neutrophils (2 x 10^6 cells/mL) were incubated in the dark at 37 °C for 5 minutes with Amplex Red (25 µM), horseradish peroxidase (0.25 U/mL) , and the compounds under study (10 - 100 µM) or DMSO (4%). Quercetin (0.3 - 5.0 µM) and DPI (0.01 - 10 µM) were used as positive controls for inhibition. After incubation, PMA (160 nM) was added, and the ﬂuorescence (excitation at 530 nm and emission at 590 nm) was measured in a microplate reader (Synergy HT, BioTek Instruments, Inc., Winooski, VT, USA). Obtained values correspond to the slope measured between 5 and 10 minutes. Eﬀects are expressed as the percentage inhibition of Amplex Red oxidation. The obtained results represent at least three independent experiments.
GraphPad Prism 6 software was used to plot the inhibition percentage versus compound concentration curves, enabling the determination of the concentration required to achieve 50% inhibition (IC50). GraphPad Prism 6 software was also used to perform all statistical analyses.
[…] was estimated by applying the one-way analysis (ANOVA), followed by the Bonferroni’s multiple comparisons test. In all cases, p-values < 0.05 were considered statistically signiﬁcant. The results are expressed as mean ± standard error of the mean (SEM).

[2] = tested on: PMA-stimulated human neutrophils; test: PMA-induced neutrophils' oxidative burst, oxidation of luminol (chemiluminescence); type: cell-based
Procedure: Luminol is easily oxidized by reactive species produced during neutrophils’ oxidative burst, resulting in a chemiluminescent signal. The effect of the compounds under study on the modulation of neutrophil oxidative burst was determined after stimulation with PMA, a known neutrophil activator, because its effect is closely analogous to that obtained during the phagocytic process. Following a previously reported method, in a 96-well plate, neutrophils were incubated in the dark at 37 °C for 5 min with luminol (500 μM) and the tested compounds (10–100 μM) or DMSO (final concentration 4%). Quercetin, a flavonoid known for its anti-inflammatory activity (0.3–5.0 μM), and the inhibitor of NADPH oxidase, DPI (0.01–10 μM), were used as controls. After incubation, PMA (160 nM) was added, and the chemiluminescence was measured in a microplate reader (Synergy HT, BIO-TEK Instruments, Inc., Winooski, VT, USA). Kinetic readings were initiated immediately after cell stimulation. Measurements were taken at the peak of the curve. […] Effects are expressed as the inhibition percentage of luminol oxidation. The results obtained represent at least three independent experiments. […]
3.4 Evaluation of neutrophils' oxidative burst
3.4.1 Oxidation of luminol
Luminol is easily oxidized by reactive species produced during neutrophils’ oxidative burst, resulting in a chemiluminescent signal. The eﬀect of the compounds under study on the modulation of neutrophil oxidative burst was determined after stimulation with PMA, a known neutrophil activator, because its eﬀect is closely analogous to that obtained during the phagocytic process. Following a previously reported method, in a 96-well plate, neutrophils were incubated in the dark at 37 °C for 5 minutes with luminol (500 µM) and the tested compounds (10 - 100 µM) or DMSO (ﬁnal concentration 4%). Quercetin, a ﬂavonoid known for its anti-inﬂammatory activity (0.3 - 5.0 µM), and the inhibitor of NADPH oxidase, DPI (0.01 - 10 µM), were used as positive and negative controls, respectively. After incubation, PMA (160 nM) was added, and the chemiluminescence was measured in a microplate reader (Synergy HT, BIO-TEK Instruments, Inc., Winooski, VT, USA). Kinetic readings were initiated immediately after cell stimulation. Measurements were taken at the […]
peak of the curve. […] Eﬀects are expressed as the inhibition percentage of luminol oxidation. The obtained results represent at least three independent experiments.

3-Hydroxy-2-(galactopyranosyl)propyl dodecanoate [Compound 1e]
Amplex Red: highest obtained % of inhibition ([1]; at 50 µM): <20% ^50µM | IC50 ([2]; PMA 160 nM, mean ± SEM): 83 ± 7 µM

3-Hydroxy-2-galactopyranosylpropyl dioctyl phosphate [Compound 1b]
Amplex Red: highest obtained % of inhibition ([1]; at 25 µM): <20% ^25µM | Luminol: highest obtained % of inhibition ([2]; at 25 µM, PMA 160 nM, mean ± SEM): 36 ± 9% ^25µM

OCC(CO)OC1OC(CO)C(O)C(O)C1O [Compound 1a, 2-O-D-(galactopyranosyl)glycerol]
inhibition at 50 µM ([1]; Homo sapiens, Neutrophil, at 50 µM, read-out: Amplex Red: highest obtained % of inhibition): < 20% | inhibition at 100 µM ([2]; Homo sapiens, Neutrophil, at 100 µM, PMA 160 nM, mean ± SEM, read-out: Luminol: highest obtained % of inhibition): 34 ± 7% | Effect on oxidative burst measured by luminol (in words) ([2]; PMA-induced): no relevant activity

CCCCCCCCCCCC(=O)OCC(CO)OC1OC(COP(=O)(OCCN)OCCN)C(O)C(O)C1O (stereo not drawn) [Compound 1h, 2-(6-(bis(2-Aminoethoxy))phosphoryl)galactopyranosyl-3-hydroxypropyl dodecanoate]
inhibition at 25 µM ([1]; Homo sapiens, Neutrophil, at 25 µM, read-out: Amplex Red: highest obtained % of inhibition): < 20% | inhibition at 25 µM ([2]; Homo sapiens, Neutrophil, at 25 µM, PMA 160 nM, mean ± SEM, read-out: Luminol: highest obtained % of inhibition): 27 ± 15%

— PMC12251482, “Floridoside Phosphotriester Derivatives: Synthesis and Inhibition of Human Neutrophils’ Oxidative Burst” (Molecules, 2025)
